The record followed here is patent US11951190B2, “Use of labeled inhibitors of prostate specific membrane antigen (PSMA), as agents for the treatment of prostate cancer” (DEUTSCHES KREBSFORSCHUNGSZENTRUM, priority 2013, dated 2024).

One data set concerns LNCaP cells. The data set is described as follows: Specific cell uptake and internalization. The format is cell-based, human. The following applies: 45 min. As to the method: (§1) In order to compare the series of novel compounds the competitive binding affinity and the specific internalization was analyzed using the PSMA expressing cell line LNCaP. To determine specific cellular uptake, cells were blocked with 2-(phosphonomethyl)-pentanedioic acid (PMPA). The inhibition potency was also investigated by the enzyme-based NAALADase assay.
(§2) For binding studies and in vivo experiments LNCaP cells (metastatic lesion of human prostatic adenocarcinoma, ATCC CRL-1740) were cultured in RPMI medium supplemented with 10% fetal calf serum and Glutamax (PAA, Austria). During cell culture, cells were grown at 37° C. in an incubator with humidified air, equilibrated with 5% CO2. The cells were harvested using trypsin-ethylenediaminetetraacetic acid (trypsin-EDTA; 0.25% trypsin, 0.02% EDTA, all from PAA, Austria) and washed with PBS.
To determine the specific cell uptake and internalization, 10^5 cells were seeded in poly-L-lysine coated 24-well cell culture plates 24 h before incubation. After washing, the cells were incubated with 25 nM of the radiolabeled compounds for 45 min at 37° C. and at 4° C., respectively. Specific cellular uptake was determined by competitive blocking with 2-(phosphonomethyl)pentanedioic acid (500 μM final concentration, PMPA, Axxora, Loerrach, Germany). Cellular uptake was terminated by washing 4 times with 1 mL of ice-cold PBS. Cells were subsequently incubated twice with 0.5 mL glycine-HCl in PBS (50 mM, pH=2.8) for 5 min to remove the surface-bound fraction. The cells were washed with 1 mL of ice-cold PBS and lysed using 0.3 N NaOH (0.5 mL). The surface-bound and the internalized fractions were measured in a gamma counter. The cell uptake was calculated as percent of the initially added radioactivity bound to 10^6 cells [% ID/10^6 cells].

The target in data set [1] is T1, PSMA expressing cell line LNCaP (Homo sapiens, UniProt Q04609).
T1 construct: using the PSMA expressing cell line LNCaP; host or cells: LNCaP
T1 sequence (Q04609 whole entry): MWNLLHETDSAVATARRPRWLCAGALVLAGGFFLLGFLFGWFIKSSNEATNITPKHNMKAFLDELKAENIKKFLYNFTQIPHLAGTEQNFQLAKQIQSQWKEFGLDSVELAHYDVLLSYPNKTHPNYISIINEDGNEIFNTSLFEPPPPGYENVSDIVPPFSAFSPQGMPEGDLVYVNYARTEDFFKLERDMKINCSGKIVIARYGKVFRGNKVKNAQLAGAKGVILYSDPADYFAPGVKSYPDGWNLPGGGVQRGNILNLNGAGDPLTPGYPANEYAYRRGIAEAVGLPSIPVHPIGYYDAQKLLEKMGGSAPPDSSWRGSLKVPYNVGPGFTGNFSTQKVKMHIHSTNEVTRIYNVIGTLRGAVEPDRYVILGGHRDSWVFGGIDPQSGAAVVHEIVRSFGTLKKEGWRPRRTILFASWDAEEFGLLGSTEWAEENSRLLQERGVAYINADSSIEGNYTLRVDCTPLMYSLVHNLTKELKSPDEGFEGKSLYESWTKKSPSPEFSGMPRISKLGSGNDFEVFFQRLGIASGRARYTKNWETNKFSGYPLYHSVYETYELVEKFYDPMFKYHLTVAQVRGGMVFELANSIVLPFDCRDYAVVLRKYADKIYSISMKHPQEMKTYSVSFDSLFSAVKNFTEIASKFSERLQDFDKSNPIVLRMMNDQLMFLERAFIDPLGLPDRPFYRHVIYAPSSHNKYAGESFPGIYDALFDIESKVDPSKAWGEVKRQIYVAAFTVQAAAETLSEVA
The data set is described as follows: Competitive cell binding assay (68Ga-labeled [Glu-urea-Lys(Ahx)]2-HBED-CC radioligand). To be noted: LNCaP cells, competition with 68Ga-labeled [Glu-urea-Lys(Ahx)]2-HBED-CC. As for the experimental part:
as §1, §2
The competitive cell binding assay and internalization experiments were performed as described previously (Eder et al. 2012).

In data set [2] the test system is LNCaP tumor xenografts. In words: Biodistribution / organ distribution in LNCaP tumor-bearing mice. To be noted: for PSMA-specific uptake (organ distribution): 68Ga labeled, 1 h post injection of 0.06 nmol, blocking with 2 mg/kg 2-PMPA. Format: in vivo, BALB/c nu/nu mice. As for the experimental part: FIG. 2: Organ Distribution at 1 h post injection. […] Data are expressed as mean % ID/g tissue±SD (n=3).
The favourable pharmacokinetics led to extremely high tumor-to-background ratios (Tumor/Blood: 1058; Tumor/Muscle: 529) after 24 hours
7- to 8-week-old male BALB/c nu/nu mice (Charles River Laboratories) were subcutaneously inoculated into the right trunk with 5×10^6 cells of LNCaP (in 50% Matrigel; Becton Dickinson, Heidelberg, Germany). The tumors were allowed to grow until approximately 1 cm3 in size. The radiolabeled compounds were injected into the tail vein (approx. 1 MBq per mouse; 0.06 nmol). […] Organs of interest were dissected, blotted dry, and weighed. The radioactivity was measured using a gamma counter and calculated as % ID/g.

The subject of data set [3] is LNCaP tumor xenografts. The data set is described as follows: Dynamic microPET imaging. The format is in vivo, athymic male nude mice. To be noted: 68Ga-labeled. As to the method: Whole-body coronal microPET images of an athymic male nude mice bearing LNCaP tumor xenografts. […] Approximately 15 MBq/mouse were injected. […] The values are expressed as mean SUV (standardized uptake values).
For the microPET studies, 10-25 MBq of the radiolabeled compounds in a volume of 0.15 ml (˜0.5 nmol) were injected via a lateral tail vein into mice bearing LNCaP tumor xenografts. The anesthetized animals (2% sevoflurane, Abbott, Wiesbaden, Germany) were placed in prone position into the Inveon small animal PET scanner (Siemens, Knoxville, Tn., USA) to perform dynamic microPET scans and 20 min-static scans; c.f. FIG. 1, 3, 5-14

Where [4] appears, read: for Ga-68, 25 nM radiolabeled compound.
Setting [5] is: 177Lu-labeled, 24 h post injection of 0.06 nmol, n=5.

The IC50 is the concentration at which inhibition is half-maximal. Read a high IC50 as weaker potency in that assay.

For the compound `O=C(O)CCC(NC(=O)NC(CCCCNC(=O)c1ccc(CNC(=O)CN2CCN(CC(=O)O)CCN(CC(=O)O)CCN(CC(=O)O)CC2)cc1)C(=O)O)C(=O)O` (stereo not drawn) [MB2], the Internalization in the data set on LNCaP cells (setting [4]) turned out to be 8.78 ± 3.96 for Ga-68 % IA/10^6 cells. In data set [1], this compound gave a half-maximal inhibitory concentration (IC50) of 2.75 ± 0.82 nM.

On to `O=C(O)CCC(NC(=O)NC(CCCCNC(=O)c1ccc(CNC(=O)c2ccc(CNC(=O)CN3CCN(CC(=O)O)CCN(CC(=O)O)CCN(CC(=O)O)CC3)cc2)cc1)C(=O)O)C(=O)O` (stereo not drawn) [MB3], for which the IC50 in data set [1] was determined as 10.5 ± 6.06 nM.

Regarding `O=C(O)CC[C@H](NC(=O)N[C@@H](CCCCNC(=O)c1ccc(CNC(=O)c2ccc(CNC(=O)c3ccc(CNC(=O)CN4CCN(CC(=O)O)CCN(CC(=O)O)CCN(CC(=O)O)CC4)cc3)cc2)cc1)C(=O)O)C(=O)O` [MB4], the Internalization in the data set with LNCaP cells (setting [4]) worked out at 14.18 ± 0.98 for Ga-68 % IA/10^6 cells. This compound returned an IC50 in data set [1] of 0.74 ± 0.5 nM.

As to `O=C(O)CCC(NC(=O)NC(CCCCNC(=O)c1ccc(CNC(=O)c2ccc(CNC(=O)c3ccc(CNC(=O)c4ccc(CNC(=O)CN5CCN(CC(=O)O)CCN(CC(=O)O)CCN(CC(=O)O)CC5)cc4)cc3)cc2)cc1)C(=O)O)C(=O)O` (stereo not drawn) [MB10], the IC50 in data set [1] was 8.67 ± 1.58 nM.

Turning to `O=C(O)CC[C@H](NC(=O)N[C@@H](CCCCNC(=O)[C@@H](Cc1ccc2ccccc2c1)NC(=O)[C@H]1CC[C@H](CNC(=O)CN2CCN(CC(=O)O)CCN(CC(=O)O)CCN(CC(=O)O)CC2)CC1)C(=O)O)C(=O)O` [MB17.D], the IC50 in data set [1] stood at 12.4 ± 5.1 nM.

As for `O=C(O)CC[C@H](NC(=O)N[C@@H](CCCCNC(=O)[C@H](Cc1ccc2ccccc2c1)NC(=O)[C@H]1CC[C@H](CNC(=O)CN2CCN(CC(=O)O)CCN(CC(=O)O)CCN(CC(=O)O)CC2)CC1)C(=O)O)C(=O)O` [MB17], the “PSMA-specific uptake (organ distribution)” value in the data set with LNCaP tumor xenografts [2] (2 mg/kg) is “PSMA-specific uptake in the tumor and the kidneys”. For the same compound, the “PSMA-specific uptake (organ distribution)” value in the data set with LNCaP tumor xenografts [2] (listed as MB 17, 2 mg/kg) is recorded as “high PSMA-specific tumor uptake”. Besides, in the data set on LNCaP tumor xenografts [2] (setting [5]), the kidney uptake was 2.13±1.36 % ID/g, the liver uptake is 0.08±0.03 % ID/g, the lung uptake is given as 0.11±0.13 % ID/g and the spleen uptake was determined as 0.13±0.05 % ID/g. The tumor uptake in the data set on LNCaP tumor xenografts [2] (setting [5]) is 10.58±4.50 % ID/g. Moreover, the Internalization with LNCaP cells (setting [4]) came out at 17.02 ± 4.36 for Ga-68 % IA/10^6 cells. The Internalization in the data set on LNCaP cells (for Lu-177, 25 nM radiolabeled compound) is reported as 17.51 ± 3.99 for Lu-177 % IA/10^6 cells. The “background clearance and kidney enrichment in PET diagrams” value in the data set on LNCaP tumor xenografts [3] (after 2 hours) was “rapid background clearance as well as a substantial reduction of the enrichment in the kidney”. The “time of maximum kidney uptake (highest point in the time-activity-curve)” value with LNCaP tumor xenografts [3] (dynamic PET, after injection of the radiotracer) amounted to 15 min.

Compound `O=C(O)CCC(NC(=O)NC(CCCCNC(=O)C1CCC(CNC(=O)CN2CCN(CC(=O)O)CCN(CC(=O)O)CCN(CC(=O)O)CC2)CC1)C(=O)O)C(=O)O` (stereo not drawn) [MB22] yielded an IC50 in data set [1] of 52.8 nM.

As to `O=C(O)CCC(NC(=O)NC(CCCCNC(=O)C(Cc1ccc2ccccc2c1)NC(=O)c1ccc(CNC(=O)CN2CCN(CC(=O)O)CCN(CC(=O)O)CCN(CC(=O)O)CC2)cc1)C(=O)O)C(=O)O` (stereo not drawn) [MB24], the IC50 in data set [1] came to 3.33 nM.

In turn, `O=C(O)CCC(NC(=O)NC(CCCCNC(=O)C(Cc1ccc2ccccc2c1)NC(=O)CCCCCNC(=O)CN1CCN(CC(=O)O)CCN(CC(=O)O)CCN(CC(=O)O)CC1)C(=O)O)C(=O)O` (stereo not drawn) [MB25] had an IC50 in data set [1] of 6.64 nM.

On to `O=C(O)CC[C@H](NC(=O)N[C@@H](CCCCNC(=O)C1CCC(CNC(=O)C2CCC(CNC(=O)CN3CCN(CC(=O)O)CCN(CC(=O)O)CCN(CC(=O)O)CC3)CC2)CC1)C(=O)O)C(=O)O` (stereo partly drawn) [MB31], for which the IC50 in data set [1] came out at 91.8 nM. Against the preceding compound, the IC50 is about 14-fold higher.

`O=C(O)CC[C@H](NC(=O)N[C@@H](CCCCNC(=O)C1CCC(CNC(=O)c2ccc(CNC(=O)CN3CCN(CC(=O)O)CCN(CC(=O)O)CCN(CC(=O)O)CC3)cc2)CC1)C(=O)O)C(=O)O` (stereo partly drawn) [MB33] had a 50% inhibitory concentration (IC50) in data set [1] of 59.3 nM.

The compound `O=C(O)CC[C@H](NC(=O)N[C@@H](CCCCNC(=O)C1CCC(CNC(=O)C(Cc2ccc3ccccc3c2)NC(=O)CN2CCN(CC(=O)O)CCN(CC(=O)O)CCN(CC(=O)O)CC2)CC1)C(=O)O)C(=O)O` (stereo partly drawn) [MB35] displayed an IC50 in data set [1] of 26.2 nM.
